In patent US10130693B2, “Peptides, combination of peptides and scaffolds for use in immunotherapeutic treatment of various cancers” (Immatics Biotechnologies GmbH, priority 2015, dated 2018):

Tested on: HLA-A*24
Experiment: MHC binding assay, UV-ligand exchange with beta2m ELISA (exchange yield), HLA-A*24
Parameters: species or system human
Conditions: binding to HLA-A*24, UV-ligand exchange
Source text: Candidate peptides for T cell based therapies according to the present invention were further tested for their MHC binding capacity (affinity). The individual peptide-MHC complexes were produced by UV-ligand exchange, where a UV-sensitive peptide is cleaved upon UV-irradiation, and exchanged with the peptide of interest as analyzed. Only peptide candidates that can effectively bind and stabilize the peptide-receptive MHC molecules prevent dissociation of the MHC complexes. To determine the yield of the exchange reaction, an ELISA was performed based on the detection of the light chain (β2m) of stabilized MHC complexes. The assay was performed as generally described in Rodenko et al. (Rodenko et al., 2006).
96 well MAXISorp plates (NUNC) were coated over night with 2 ug/ml streptavidin in PBS at room temperature, washed 4× and blocked for 1 h at 37° C. in 2% BSA containing blocking buffer. […] Peptide-MHC monomers of the UV-exchange reaction were diluted 100 fold in blocking buffer. Samples were incubated for 1 h at 37° C., washed four times, incubated with 2 ug/ml HRP conjugated anti-β2m for 1h at 37° C., washed again and detected with TMB solution that is stopped with […]. Absorption was measured at 450 nm. Candidate peptides that show a high exchange yield (preferably higher than 50%, most preferred higher than 75%) are generally preferred for a generation and production of antibodies or fragments thereof, and/or T cell receptors or fragments thereof, as they show sufficient avidity to the MHC molecules and prevent dissociation of the MHC complexes.

## 270 (YYSQESKVLYL; listed as Homo sapiens) [compound 270]
  Peptide exchange (MHC class I binding score, peptide exchange yield): +++ (50%-75% = +++)

## 221 (KYIGNLDLL; listed as Homo sapiens) [compound 221]
  Peptide exchange (MHC class I binding score, peptide exchange yield): ++++ (>=75% = ++++)

## 205 (VYPVVLNQI; listed as Homo sapiens) [compound 205]
  Peptide exchange (MHC class I binding score, peptide exchange yield): +++ (50%-75% = +++)

## 376 (VYTPVASRQSL; listed as Homo sapiens) [compound 376]
  Peptide exchange (MHC class I binding score, peptide exchange yield): +++ (50%-75% = +++)

## 297 (TYIDTRTVF; listed as Homo sapiens) [compound 297]
  Peptide exchange (MHC class I binding score, peptide exchange yield): ++++ (>=75% = ++++)

## 247 (SFTKTSPNF; listed as Homo sapiens) [compound 247]
  Peptide exchange (MHC class I binding score, peptide exchange yield): +++ (50%-75% = +++)

## 201 (GYNPNRVFF; listed as Homo sapiens) [compound 201]
  Peptide exchange (MHC class I binding score, peptide exchange yield): +++ (50%-75% = +++)

## 258 (AYAQLGYLL; listed as Homo sapiens) [compound 258]
  Peptide exchange (MHC class I binding score, peptide exchange yield): +++ (50%-75% = +++)

## 230 (TYGMVMVTF; listed as Homo sapiens) [compound 230]
  Peptide exchange (MHC class I binding score, peptide exchange yield): +++ (50%-75% = +++)

## 131 (EYLDRIGQLFF; listed as Homo sapiens) [compound 131]
  Peptide exchange (MHC class I binding score, peptide exchange yield): +++ (50%-75% = +++)

## 382 (AYLPPLQQVF; listed as Homo sapiens) [compound 382]
  Peptide exchange (MHC class I binding score, peptide exchange yield): +++ (50%-75% = +++)

## 209 (AFIETPIPLF; listed as Homo sapiens) [compound 209]
  Peptide exchange (MHC class I binding score, peptide exchange yield): ++++ (>=75% = ++++)

## 384 (RYFDVGLHNF; listed as Homo sapiens) [compound 384]
  Peptide exchange (MHC class I binding score, peptide exchange yield): +++ (50%-75% = +++)

## 173 (QYLEKYYNL; listed as Homo sapiens) [compound 173]
  Peptide exchange (MHC class I binding score, peptide exchange yield): ++++ (>=75% = ++++)

## 207 (LYSDAFKFIVF; listed as Homo sapiens) [compound 207]
  Peptide exchange (MHC class I binding score, peptide exchange yield): +++ (50%-75% = +++)

## 225 (TYTNTLERL; listed as Homo sapiens) [compound 225]
  Peptide exchange (MHC class I binding score, peptide exchange yield): +++ (50%-75% = +++)

## 271 (RFLMKSYSF; listed as Homo sapiens) [compound 271]
  Peptide exchange (MHC class I binding score, peptide exchange yield): ++++ (>=75% = ++++)

## 286 (SYGTILSHI; listed as Homo sapiens) [compound 286]
  Peptide exchange (MHC class I binding score, peptide exchange yield): ++++ (>=75% = ++++)

## 374 (VFLPRVTEL; listed as Homo sapiens) [compound 374]
  Peptide exchange (MHC class I binding score, peptide exchange yield): ++ (20%-49% = ++)

## 191 (TYPDGTYTGRIF; listed as Homo sapiens) [compound 191]
  Peptide exchange (MHC class I binding score, peptide exchange yield): +++ (50%-75% = +++)

## 257 (IFIDNSTQPLHF; listed as Homo sapiens) [compound 257]
  Peptide exchange (MHC class I binding score, peptide exchange yield): +++ (50%-75% = +++)

## 275 (KYGTLDVTF; listed as Homo sapiens) [compound 275]
  Peptide exchange (MHC class I binding score, peptide exchange yield): ++++ (>=75% = ++++)

## 293 (VYPHFSTTNLI; listed as Homo sapiens) [compound 293]
  Peptide exchange (MHC class I binding score, peptide exchange yield): ++++ (>=75% = ++++)

## 193 (LYLENNAQTQF; listed as Homo sapiens) [compound 193]
  Peptide exchange (MHC class I binding score, peptide exchange yield): +++ (50%-75% = +++)

## 154 (VYGVPTPHF; listed as Homo sapiens) [compound 154]
  Peptide exchange (MHC class I binding score, peptide exchange yield): ++++ (>=75% = ++++)

## 231 (AFADVSVKF; listed as Homo sapiens) [compound 231]
  Peptide exchange (MHC class I binding score, peptide exchange yield): ++++ (>=75% = ++++)

## 136 (IYPEWPVVFF; listed as Homo sapiens) [compound 136]
  Peptide exchange (MHC class I binding score, peptide exchange yield): +++ (50%-75% = +++)

## 217 (IYISNSIYF; listed as Homo sapiens) [compound 217]
  Peptide exchange (MHC class I binding score, peptide exchange yield): ++++ (>=75% = ++++)

## 342 (NYAFLHRTL; listed as Homo sapiens) [compound 342]
  Peptide exchange (MHC class I binding score, peptide exchange yield): +++ (50%-75% = +++)

## 387 (KYTEKLEEI; listed as Homo sapiens) [compound 387]
  Peptide exchange (MHC class I binding score, peptide exchange yield): +++ (50%-75% = +++)

## 295 (SYLVIHERI; listed as Homo sapiens) [compound 295]
  Peptide exchange (MHC class I binding score, peptide exchange yield): +++ (50%-75% = +++)

## 124 (TYKDYVDLF; listed as Homo sapiens) [compound 124]
  Peptide exchange (MHC class I binding score, peptide exchange yield): + (<20% = +)

## 268 (IFITKALQI; listed as Homo sapiens) [compound 268]
  Peptide exchange (MHC class I binding score, peptide exchange yield): ++ (20%-49% = ++)

## 267 (SFLNIEKTEILF; listed as Homo sapiens) [compound 267]
  Peptide exchange (MHC class I binding score, peptide exchange yield): ++ (20%-49% = ++)

## 315 (FYIPHVPVSF; listed as Homo sapiens) [compound 315]
  Peptide exchange (MHC class I binding score, peptide exchange yield): +++ (50%-75% = +++)

## 341 (SYLTQHQRI; listed as Homo sapiens) [compound 341]
  Peptide exchange (MHC class I binding score, peptide exchange yield): +++ (50%-75% = +++)

## 197 (IFTDIFHYL; listed as Homo sapiens) [compound 197]
  Peptide exchange (MHC class I binding score, peptide exchange yield): ++++ (>=75% = ++++)

## 245 (LYPQLFVVL; listed as Homo sapiens) [compound 245]
  Peptide exchange (MHC class I binding score, peptide exchange yield): +++ (50%-75% = +++)

## 176 (FYINGQYQF; listed as Homo sapiens) [compound 176]
  Peptide exchange (MHC class I binding score, peptide exchange yield): +++ (50%-75% = +++)

## 291 (YYLGSGRETF; listed as Homo sapiens) [compound 291]
  Peptide exchange (MHC class I binding score, peptide exchange yield): +++ (50%-75% = +++)

## 289 (FFHEGQYVF; listed as Homo sapiens) [compound 289]
  Peptide exchange (MHC class I binding score, peptide exchange yield): ++++ (>=75% = ++++)

## 143 (KYIFQLNEI; listed as Homo sapiens) [compound 143]
  Peptide exchange (MHC class I binding score, peptide exchange yield): +++ (50%-75% = +++)

## 266 (KYTDWTEFL; listed as Homo sapiens) [compound 266]
  Peptide exchange (MHC class I binding score, peptide exchange yield): +++ (50%-75% = +++)

## 305 (NYENKQYLF; listed as Homo sapiens) [compound 305]
  Peptide exchange (MHC class I binding score, peptide exchange yield): ++++ (>=75% = ++++)

## 288 (VYPDTVALTF; listed as Homo sapiens) [compound 288]
  Peptide exchange (MHC class I binding score, peptide exchange yield): ++ (20%-49% = ++)

## 282 (NYLVDPVTI; listed as Homo sapiens) [compound 282]
  Peptide exchange (MHC class I binding score, peptide exchange yield): +++ (50%-75% = +++)

## 224 (PYFFANQEF; listed as Homo sapiens) [compound 224]
  Peptide exchange (MHC class I binding score, peptide exchange yield): +++ (50%-75% = +++)

## 145 (VYALKVRTI; listed as Homo sapiens) [compound 145]
  Peptide exchange (MHC class I binding score, peptide exchange yield): +++ (50%-75% = +++)

## 135 (VYEAMVPLF; listed as Homo sapiens) [compound 135]
  Peptide exchange (MHC class I binding score, peptide exchange yield): ++++ (>=75% = ++++)

## 216 (FYVNVKEQF; listed as Homo sapiens) [compound 216]
  Peptide exchange (MHC class I binding score, peptide exchange yield): +++ (50%-75% = +++)

## 357 (QFITSTNTF; listed as Homo sapiens) [compound 357]
  Peptide exchange (MHC class I binding score, peptide exchange yield): ++++ (>=75% = ++++)

## 125 (VFSRDFGLLVF; listed as Homo sapiens) [compound 125]
  Peptide exchange (MHC class I binding score, peptide exchange yield): +++ (50%-75% = +++)

## 314 (RYFKGDYSI; listed as Homo sapiens) [compound 314]
  Peptide exchange (MHC class I binding score, peptide exchange yield): +++ (50%-75% = +++)

## 261 (GYIKLINFI; listed as Homo sapiens) [compound 261]
  Peptide exchange (MHC class I binding score, peptide exchange yield): ++++ (>=75% = ++++)

## 379 (VFIAQGYTL; listed as Homo sapiens) [compound 379]
  Peptide exchange (MHC class I binding score, peptide exchange yield): ++++ (>=75% = ++++)

## 242 (VYGEPRELL; listed as Homo sapiens) [compound 242]
  Peptide exchange (MHC class I binding score, peptide exchange yield): +++ (50%-75% = +++)

## 259 (YFIKSPPSQLF; listed as Homo sapiens) [compound 259]
  Peptide exchange (MHC class I binding score, peptide exchange yield): ++ (20%-49% = ++)

## 229 (IYQFVADSF; listed as Homo sapiens) [compound 229]
  Peptide exchange (MHC class I binding score, peptide exchange yield): +++ (50%-75% = +++)

## 183 (PYLQDVPRI; listed as Homo sapiens) [compound 183]
  Peptide exchange (MHC class I binding score, peptide exchange yield): +++ (50%-75% = +++)

## 262 (VYSSQFETI; listed as Homo sapiens) [compound 262]
  Peptide exchange (MHC class I binding score, peptide exchange yield): ++++ (>=75% = ++++)

## 319 (KYSDVKNLI; listed as Homo sapiens) [compound 319]
  Peptide exchange (MHC class I binding score, peptide exchange yield): ++++ (>=75% = ++++)

## 232 (YYLSDSPLL; listed as Homo sapiens) [compound 232]
  Peptide exchange (MHC class I binding score, peptide exchange yield): +++ (50%-75% = +++)
